In ChEMBL document CHEMBL1146128, “Azolylchromans as a novel scaffold for anticonvulsant activity” (2006):

Experiments:
Conditions in all cases: route intraperitoneal
[1] = test system: Mus musculus; assay: Hind limb tonic extension in PTZ-induced lethal convulsions in mice at 5 mg/kg, ip; type: functional, Hindlimb
[2] = test system: Mus musculus; assay: Seizure latency in PTZ-induced lethal convulsions in mice at 5 mg/kg, ip; type: functional
[3] = test system: Mus musculus; assay: Mortality in PTZ-induced lethal convulsions in mice at 5 mg/kg, ip; type: functional
[4] = test system: Mus musculus; assay: Hind limb tonic extension in PTZ-induced lethal convulsions in mice at 150 mg/kg, ip; type: functional, Hindlimb
[5] = test system: Mus musculus; assay: Mortality in PTZ-induced lethal convulsions in mice at 150 mg/kg, ip; type: functional
[6] = test system: Mus musculus; assay: Seizure latency in PTZ-induced lethal convulsions in mice at 150 mg/kg, ip; type: functional

Row | SMILES | Activity [1] [%] | Activity [2] [min] | Activity [3] [%] | Activity [4] [%] | Activity [5] [%] | Activity [6] [min]
1 | O=C1c2ccccc2OCC1n1cncn1 (configuration not stated) | 17 | 22 | 17 | – | – | –
2 | O/N=C1/c2ccccc2OCC1n1cncn1 (configuration not stated) | 100 | 4 | 100 | – | – | –
3 | Cc1oc2ccccc2c(=O)c1-n1cnnc1 | 100 | 5 | 100 | – | – | –
4 | C[C@@H]1Oc2ccccc2C(=O)[C@H]1n1ccnc1 (relative stereo) | 100 | 17 | 67 | – | – | –
5 | C[C@H]1Oc2ccccc2C(=O)[C@@H]1n1cnnc1 (relative stereo) | 100 | 7.17 | 100 | – | – | –
6 | C[C@@H]1Oc2cc(Cl)ccc2C(=O)[C@H]1n1ccnc1 (relative stereo) | 67 | 18.6 | 67 | – | – | –
7 | O=c1c(-n2cnnc2)coc2ccccc12 | 100 | 10 | 100 | – | – | –
8 | O=C1c2ccc(Cl)cc2OCC1n1cnnc1 (configuration not stated) | 100 | 4.67 | 83 | – | – | –
9 | CCCC(CCC)C(=O)[O-].[Na+] [VALPROATE SODIUM] | – | – | – | 0 | 0 | 15.65
10 | O/N=C1\c2ccccc2OCC1n1ccnc1 (configuration not stated) | 100 | 5.5 | 100 | – | – | –
11 | O/N=C1/c2ccc(Cl)cc2OCC1n1ccnc1 (configuration not stated) | 100 | 5.83 | 100 | – | – | –
12 | O/N=C1/c2ccc(Cl)cc2OCC1n1cnnc1 (configuration not stated) | 100 | 2.5 | 100 | – | – | –
13 | O=C1c2ccc(Cl)cc2OCC1n1ccnc1 (configuration not stated) | 0 | 23.5 | 0 | – | – | –
14 | O/N=C1\c2ccccc2OCC1[n+]1cnc[nH]1 (configuration not stated) | 100 | 7.17 | 100 | – | – | –
15 | O=C1c2ccc(Cl)cc2OCC1n1cncn1 (configuration not stated) | 100 | 2.5 | 100 | – | – | –
16 | O/N=C1/c2ccccc2OCC1n1ccnc1 (configuration not stated) | 83 | 7.8 | 0 | – | – | –
17 | O=C1c2ccccc2OCC1n1cnnc1 (configuration not stated) | 100 | 2.83 | 100 | – | – | –
18 | O=C1c2ccccc2OCC1n1ccnc1 (configuration not stated) | 83 | 2 | 83 | – | – | –
19 | C[C@H]1Oc2cc(Cl)ccc2C(=O)[C@@H]1n1cnnc1 (relative stereo) | 83 | 10 | 83 | – | – | –
